# Measured values as given in PubChem BioAssay (NCI).
#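 Step 1: Grow cells in 96-well plates. Step 2: Expose to compound for 48 hours at 5 concentrations. Step 3: Interpolate endpoints linearly; if unreached, use highest concentration. GI50: concentration for 50% inhibition of growth. Definition used: TGI = concentration required for complete inhibition of growth.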
# Key:
# Assay in all cases: DTP human tumour cell line panel, 48 h
# [1] = test system: 786-0 renal
# [2] = test system: A549 NSCLC
# [3] = test system: ACHN renal
# [4] = test system: BT-549 breast
# [5] = test system: CAKI-1 renal
# [6] = test system: CCRF-CEM leukemia
# [7] = test system: COLO 205 colon
# [8] = test system: DU-145 prostate
# [9] = test system: EKVX NSCLC
# [10] = test system: HCC-2998 colon
# [11] = test system: HCT-116 colon
# [12] = test system: HCT-15 colon
# [13] = test system: HL-60(TB) leukemia
# [14] = test system: HOP-62 NSCLC
# [15] = test system: HOP-92 NSCLC
# [16] = test system: HS 578T breast
# [17] = test system: HT29 colon
# [18] = test system: IGROV1 ovarian
# [19] = test system: K-562 leukemia
# [20] = test system: KM12 colon
# [21] = test system: LOX IMVI melanoma
# [22] = test system: M14 melanoma
# [23] = test system: MALME-3M melanoma
# [24] = test system: MCF7 breast
# [25] = test system: MDA-MB-231 breast
# [26] = test system: MDA-MB-435
# [27] = test system: MOLT-4 leukemia
# [28] = test system: NCI-H226 lung
# [29] = test system: NCI-H23 lung
# [30] = test system: NCI-H460 lung
# [31] = test system: NCI-H522 lung
# [32] = test system: NCI/ADR-RES ovarian
# [33] = test system: OVCAR-3 ovarian
# [34] = test system: OVCAR-4 ovarian
# [35] = test system: OVCAR-5 ovarian
# [36] = test system: OVCAR-8 ovarian
# [37] = test system: PC-3 prostate
# [38] = test system: RPMI-8226 leukemia
# [39] = test system: RXF 393 renal
# [40] = test system: SF-268 CNS
# [41] = test system: SF-295 CNS
# [42] = test system: SF-539 CNS
# [43] = test system: SK-MEL-2 melanoma
# [44] = test system: SK-MEL-28 melanoma
# [45] = test system: SK-MEL-5 melanoma
# [46] = test system: SK-OV-3 ovarian
# [47] = test system: SN12C renal
# [48] = test system: SNB-19 CNS
# [49] = test system: SNB-75 CNS
# [50] = test system: SR leukemia
# [51] = test system: SW-620 colon
# [52] = test system: T-47D breast
# [53] = test system: TK-10 renal
# [54] = test system: U251 CNS
# [55] = test system: UACC-257 melanoma
# [56] = test system: UACC-62 melanoma
# [57] = test system: UO-31 renal
# [58] = test system: A498 renal
structure (smiles),measurement,setting,value
C=CC(=O)Nc1cccc(C)c1Nc1ncc2cc(-c3c(Cl)c(OC)cc(OC)c3Cl)ccc2n1,GI50,[1],2330 nM
same,TGI,[1],10.1 µM
same,GI50,[2],7.27 µM
same,TGI,[2],97.4 µM
same,GI50,[3],7.01 µM
same,TGI,[3],> 100000 nM
same,GI50,[4],1640 nM
same,TGI,[4],9.34 µM
same,GI50,[5],8.39 µM
same,TGI,[5],> 100000 nM
same,GI50,[6],4440 nM
same,TGI,[6],> 100 µM
same,GI50,[7],4170 nM
same,TGI,[7],36.7 µM
same,GI50,[8],3630 nM
same,TGI,[8],> 100000 nM
same,GI50,[9],6.85 µM
same,TGI,[9],52.9 µM
same,GI50,[10],12.4 µM
same,TGI,[10],31.9 µM
same,GI50,[11],6.36 µM
same,TGI,[11],24.9 µM
same,GI50,[12],4210 nM
same,TGI,[12],> 100000 nM
same,GI50,[13],2130 nM
same,TGI,[13],15 µM
same,GI50,[14],8.86 µM
same,TGI,[14],50 µM
same,GI50,[15],6.99 µM
same,TGI,[15],36.8 µM
same,GI50,[16],13.8 µM
same,TGI,[16],> 100 µM
same,GI50,[17],6.31 µM
same,TGI,[17],67.7 µM
same,GI50,[18],8.18 µM
same,TGI,[18],26 µM
same,GI50,[19],3.89 µM
same,TGI,[19],> 100 µM
same,GI50,[20],4.11 µM
same,TGI,[20],24.8 µM
same,GI50,[21],2330 nM
same,TGI,[21],14.1 µM
same,GI50,[22],7.44 µM
same,TGI,[22],57.2 µM
same,GI50,[23],3980 nM
same,TGI,[23],31.4 µM
same,GI50,[24],1970 nM
same,TGI,[24],> 100 µM
same,GI50,[25],4020 nM
same,TGI,[25],46.4 µM
same,GI50,[26],4140 nM
same,TGI,[26],17.4 µM
same,GI50,[27],1760 nM
same,TGI,[27],7.61 µM
same,GI50,[28],3.18 µM
same,TGI,[28],18.1 µM
same,GI50,[29],9.31 µM
same,TGI,[29],34.2 µM
same,GI50,[30],1640 nM
same,TGI,[30],11.5 µM
same,GI50,[31],10.2 µM
same,TGI,[31],26.9 µM
same,GI50,[32],4.07 µM
same,TGI,[32],66.5 µM
same,GI50,[33],2780 nM
same,TGI,[33],13.1 µM
same,GI50,[34],3470 nM
same,TGI,[34],> 100 µM
same,GI50,[35],17.9 µM
same,TGI,[35],> 100 µM
same,GI50,[36],4.83 µM
same,TGI,[36],47 µM
same,GI50,[37],2090 nM
same,TGI,[37],23.3 µM
same,GI50,[38],1440 nM
same,TGI,[38],7.54 µM
same,GI50,[39],1300 nM
same,TGI,[39],4.59 µM
same,GI50,[40],3.69 µM
same,TGI,[40],38.6 µM
same,GI50,[41],3.26 µM
same,TGI,[41],> 100 µM
same,GI50,[42],1380 nM
same,TGI,[42],10.8 µM
same,GI50,[43],4.26 µM
same,TGI,[43],28.7 µM
same,GI50,[44],12.7 µM
same,TGI,[44],55.6 µM
same,GI50,[45],2610 nM
same,TGI,[45],9.63 µM
same,GI50,[46],18.3 µM
same,TGI,[46],82.6 µM
same,GI50,[47],5.87 µM
same,TGI,[47],> 100 µM
same,GI50,[48],4.14 µM
same,TGI,[48],47.1 µM
same,GI50,[49],2570 nM
same,TGI,[49],44.9 µM
same,GI50,[50],2750 nM
same,TGI,[50],> 100 µM
same,GI50,[51],3900 nM
same,TGI,[51],39.5 µM
same,GI50,[52],1640 nM
same,TGI,[52],> 100 µM
same,GI50,[53],3250 nM
same,TGI,[53],22.1 µM
same,GI50,[54],2300 nM
same,TGI,[54],16.5 µM
same,GI50,[55],3430 nM
same,TGI,[55],68.3 µM
same,GI50,[56],7.96 µM
same,TGI,[56],42.9 µM
same,GI50,[57],3660 nM
same,TGI,[57],61.5 µM
C=C1C(=O)O[C@H]2[C@H]1CC/C(CNS(=O)(=O)c1cccc3ccccc13)=C\CC[C@@]1(C)O[C@@H]21,GI50,[1],1610 nM
same,TGI,[1],3.27 µM
same,GI50,[58],4.85 µM
same,TGI,[58],17.2 µM
same,GI50,[2],11.5 µM
same,TGI,[2],32.4 µM
same,GI50,[3],1.19 µM
same,TGI,[3],2560 nM
same,GI50,[4],1560 nM
same,TGI,[4],3.1 µM
same,GI50,[5],1.12 µM
same,TGI,[5],2560 nM
same,GI50,[6],624 nM
same,TGI,[6],3.82 µM
same,GI50,[7],1730 nM
same,TGI,[7],3.49 µM
same,GI50,[8],1110 nM
same,TGI,[8],2430 nM
same,GI50,[9],2.53 µM
same,TGI,[9],10.3 µM
same,GI50,[10],2.16 µM
same,TGI,[10],4.87 µM
same,GI50,[11],1.08 µM
same,TGI,[11],2.3 µM
same,GI50,[12],1250 nM
same,TGI,[12],2700 nM
same,GI50,[13],1210 nM
same,TGI,[13],3.76 µM
same,GI50,[14],13.4 µM
same,TGI,[14],27.9 µM
same,GI50,[15],1.11 µM
same,TGI,[15],2.8 µM
same,GI50,[16],3.46 µM
same,TGI,[16],18.4 µM
same,GI50,[17],1.85 µM
same,TGI,[17],3.86 µM
same,GI50,[18],1.38 µM
same,TGI,[18],3.4 µM
same,GI50,[20],9.76 µM
same,TGI,[20],25.8 µM
same,GI50,[21],1450 nM
same,TGI,[21],2.93 µM
same,GI50,[22],1.53 µM
same,TGI,[22],3.32 µM
same,GI50,[23],1770 nM
same,TGI,[23],4.09 µM
same,GI50,[24],1360 nM
same,TGI,[24],3.14 µM
same,GI50,[25],1530 nM
same,TGI,[25],3.4 µM
same,GI50,[26],1600 nM
same,TGI,[26],3.42 µM
same,GI50,[27],1870 nM
same,TGI,[27],5.27 µM
same,GI50,[28],13.2 µM
same,TGI,[28],33 µM
same,GI50,[29],2.48 µM
same,TGI,[29],9.12 µM
same,GI50,[30],4280 nM
same,TGI,[30],17 µM
same,GI50,[31],1.28 µM
same,TGI,[31],2.88 µM
same,GI50,[32],5.08 µM
same,TGI,[32],20.6 µM
same,GI50,[33],1160 nM
same,TGI,[33],2.48 µM
same,GI50,[34],1720 nM
same,TGI,[34],3.68 µM
same,GI50,[35],2.84 µM
same,TGI,[35],8.44 µM
same,GI50,[36],2.52 µM
same,TGI,[36],9.16 µM
same,GI50,[37],1910 nM
same,TGI,[37],4.51 µM
same,GI50,[38],1580 nM
same,TGI,[38],4.43 µM
same,GI50,[39],1260 nM
same,TGI,[39],2.87 µM
same,GI50,[40],3.74 µM
same,TGI,[40],15.1 µM
same,GI50,[41],5.49 µM
same,TGI,[41],19.2 µM
same,GI50,[42],1770 nM
same,TGI,[42],4.02 µM
same,GI50,[43],5.18 µM
same,TGI,[43],18.3 µM
same,GI50,[44],1.97 µM
same,TGI,[44],4.24 µM
same,GI50,[45],1950 nM
same,TGI,[45],3.98 µM
same,GI50,[46],12.1 µM
same,TGI,[46],24.5 µM
same,GI50,[47],2.12 µM
same,TGI,[47],7.74 µM
same,GI50,[48],5.44 µM
same,TGI,[48],19.8 µM
same,GI50,[50],1310 nM
same,TGI,[50],6.11 µM
same,GI50,[51],713 nM
same,TGI,[51],2.26 µM
same,GI50,[52],1960 nM
same,TGI,[52],6.51 µM
same,GI50,[53],1480 nM
same,TGI,[53],3.08 µM
same,GI50,[54],3670 nM
same,TGI,[54],15.3 µM
same,GI50,[55],1640 nM
same,TGI,[55],3.89 µM
same,GI50,[56],1.67 µM
same,TGI,[56],4.5 µM
same,GI50,[57],1450 nM
same,TGI,[57],2.94 µM
